Measurements published in PubChem BioAssay (NCI).
Where “and” joins values, the source holds several entries; their conditions need not be identical. Equal entries are not always repeated.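 Values below derive from 48-hour exposures of cells grown in 96-well plates, with endpoints linearly interpolated between the two concentrations bracketing the appropriate inhibition level. Here, GI50 denotes the concentration required for 50% inhibition of growth. The concentration for full growth arrest is given as TGI.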

Legend:
Assay in all cases: NCI tumour cell line growth inhibition, 48 h
A498 renal = tested on: A498 renal
DU-145 prostate = tested on: DU-145 prostate
HOP-62 NSCLC = tested on: HOP-62 NSCLC
LOX IMVI melanoma = tested on: LOX IMVI melanoma
MOLT-4 leukemia = tested on: MOLT-4 leukemia
RXF 393 renal = tested on: RXF 393 renal
SK-MEL-28 melanoma = tested on: SK-MEL-28 melanoma
SK-OV-3 ovarian = tested on: SK-OV-3 ovarian
SNB-75 CNS = tested on: SNB-75 CNS
UO-31 renal = tested on: UO-31 renal

## CCc1c2c(nc3cc4c(c(N)c13)OCO4)-c1cc3c(c(=O)n1C2)COC(=O)[C@]3(O)CC
A498 renal
  GI50: 7.58 nM and 33.4 nM
  TGI: 0.252 µM and 0.459 µM
DU-145 prostate
  GI50: < 1 nM
  TGI: > 100 µM
HOP-62 NSCLC
  GI50: < 1 nM
LOX IMVI melanoma
  GI50: < 1 nM
  TGI: 0.134 µM and 0.19 µM
MOLT-4 leukemia
  GI50: < 1 nM
RXF 393 renal
  GI50: 18.8 nM and 43 nM
  TGI: 0.44 µM and 0.382 µM
SK-MEL-28 melanoma
  GI50: 473 nM and 249 nM
  TGI: 5.44 µM and 32.4 µM
SK-OV-3 ovarian
  GI50: < 1 nM
SNB-75 CNS
  GI50: < 1 nM
UO-31 renal
  GI50: 1.28 nM
  TGI: 0.153 µM

## CC1=C(C(=O)Nc2ccccc2C)C(c2ccc(C3C(C(=O)Nc4ccccc4C)=C(C)NC(C)=C3C(=O)Nc3ccccc3C)cc2)C(C(=O)Nc2ccccc2C)=C(C)N1
A498 renal
  TGI: 29 µM
DU-145 prostate
  TGI: 32.1 µM
HOP-62 NSCLC
  TGI: 42.1 µM
LOX IMVI melanoma
  TGI: 3.63 µM
MOLT-4 leukemia
  TGI: 9.28 µM
RXF 393 renal
  TGI: 17.6 µM
SK-MEL-28 melanoma
  TGI: 4.26 µM
SK-OV-3 ovarian
  TGI: 28.8 µM
SNB-75 CNS
  TGI: 30.9 µM
UO-31 renal
  TGI: 26.7 µM

## Cc1ncc(C(=O)Nc2ccc(CN3CCN(C)CC3)c(C(F)(F)F)c2)cc1C#Cc1cnc(N)c2cnccc12
A498 renal
  GI50: 51.1 nM
  TGI: 0.3 µM
DU-145 prostate
  GI50: 63.6 nM
  TGI: 6.91 µM
HOP-62 NSCLC
  GI50: 85.4 nM
  TGI: 1.34 µM
LOX IMVI melanoma
  GI50: 33.5 nM
  TGI: 0.158 µM
MOLT-4 leukemia
  GI50: 41.2 nM
  TGI: 4.98 µM
RXF 393 renal
  GI50: 70.6 nM
  TGI: 0.399 µM
SK-MEL-28 melanoma
  GI50: 18.1 nM
  TGI: 0.376 µM
SK-OV-3 ovarian
  GI50: 162 nM
  TGI: 0.763 µM
SNB-75 CNS
  GI50: 89.9 nM
  TGI: 0.616 µM
UO-31 renal
  GI50: 289 nM
  TGI: 1.15 µM

## CNC1C(O)C(OC2C(N)CC(N)C(OC3OC(CN)=CCC3N)C2O)OCC1(C)O (stereo not given)
A498 renal
  TGI: > 100 µM
DU-145 prostate
  TGI: > 100 µM
HOP-62 NSCLC
  TGI: > 100 µM
LOX IMVI melanoma
  TGI: > 100 µM
MOLT-4 leukemia
  TGI: > 100 µM
SK-MEL-28 melanoma
  TGI: > 100 µM
SK-OV-3 ovarian
  TGI: > 100 µM
SNB-75 CNS
  TGI: > 100 µM
UO-31 renal
  TGI: > 100 µM

## CCN(CC)c1ccc(C2CC(c3cc(OC)c(OC)c(OC)c3)=NN2)cc1 (stereo not given)
A498 renal
  GI50: 443 nM
  TGI: 2.44 µM
DU-145 prostate
  GI50: 305 nM
  TGI: 1.49 µM
HOP-62 NSCLC
  GI50: 456 nM
  TGI: > 21.1 µM
LOX IMVI melanoma
  GI50: 830 nM
  TGI: > 42 µM
MOLT-4 leukemia
  GI50: 1560 nM
  TGI: 8.14 µM
SK-MEL-28 melanoma
  GI50: 23700 nM
  TGI: > 100 µM
SK-OV-3 ovarian
  GI50: 537 nM
  TGI: > 100 µM
SNB-75 CNS
  GI50: 372 nM
UO-31 renal
  GI50: 1500 nM
  TGI: > 100 µM

## CCCOc1ccc(-c2nc(-c3ccc(N=Cc4ccc(N(CCOS(C)(=O)=O)CCOS(C)(=O)=O)cc4C)cc3)cs2)cc1
A498 renal
  TGI: 24.2 µM
DU-145 prostate
  TGI: 18.1 µM
HOP-62 NSCLC
  TGI: 43.7 µM
LOX IMVI melanoma
  TGI: 66.8 µM
MOLT-4 leukemia
  TGI: 66.6 µM
RXF 393 renal
  TGI: 28.9 µM
SK-MEL-28 melanoma
  TGI: > 100 µM
SK-OV-3 ovarian
  TGI: 43.2 µM
SNB-75 CNS
  TGI: 18 µM
UO-31 renal
  TGI: 48 µM

## COC(=O)[C@@]1(Cc2ccccc2)[C@H]2c3cc(C(=O)N4CCCC4)n(Cc4ccc(OC)c(OC)c4)c3C[C@H]2CN1C(=O)c1ccccc1
A498 renal
  GI50: 10400 nM
  TGI: 19.2 µM
DU-145 prostate
  GI50: 15000 nM
  TGI: > 50 µM
HOP-62 NSCLC
  GI50: 8340 nM
  TGI: 17.8 µM
LOX IMVI melanoma
  GI50: 9120 nM
  TGI: 16.8 µM
MOLT-4 leukemia
  GI50: 7940 nM
  TGI: 32.8 µM
RXF 393 renal
  GI50: 5890 nM
  TGI: 12.8 µM
SK-MEL-28 melanoma
  GI50: 10100 nM
  TGI: 21.7 µM
SK-OV-3 ovarian
  GI50: 18900 nM
  TGI: > 50 µM
SNB-75 CNS
  GI50: 17400 nM
  TGI: > 50 µM
UO-31 renal
  GI50: 8500 nM
  TGI: 17.3 µM

## O=C1/C=C/[C@@H](O)[C@@H]2C[C@@H](O)C[C@H]2/C=C/CCC[C@H](CCc2ccc(C(F)(F)F)cc2)O1
A498 renal
  GI50: 53.3 nM
  TGI: 0.277 µM
DU-145 prostate
  GI50: 479 nM
  TGI: > 100 µM
HOP-62 NSCLC
  GI50: 328 nM
  TGI: 11 µM
LOX IMVI melanoma
  GI50: 161 nM
  TGI: 0.423 µM
MOLT-4 leukemia
  GI50: 320 nM
  TGI: 0.832 µM
RXF 393 renal
  GI50: 126 nM
  TGI: 0.669 µM
SK-MEL-28 melanoma
  GI50: 40.5 nM
  TGI: 0.361 µM
SK-OV-3 ovarian
  GI50: 279 nM
  TGI: 30.2 µM
SNB-75 CNS
  GI50: 54.4 nM
  TGI: 32.5 µM
UO-31 renal
  GI50: 259 nM

## COc1ccc(-c2nsc3c2NC(=O)CC3c2ccc(F)cc2)cc1 (stereo not given)
A498 renal
  GI50: 2370 nM
  TGI: > 100 µM
DU-145 prostate
  GI50: 5310 nM
  TGI: > 100 µM
HOP-62 NSCLC
  GI50: 7060 nM
  TGI: 49 µM
LOX IMVI melanoma
  GI50: 7180 nM
  TGI: > 100 µM
MOLT-4 leukemia
  GI50: 577 nM
  TGI: > 100 µM
RXF 393 renal
  GI50: 5910 nM
  TGI: > 77.5 µM
SK-MEL-28 melanoma
  GI50: 4740 nM
  TGI: > 100 µM
SK-OV-3 ovarian
  GI50: 4590 nM
  TGI: > 100 µM
SNB-75 CNS
  GI50: 2350 nM
  TGI: 15.7 µM
UO-31 renal
  GI50: 4590 nM
  TGI: > 100 µM

## CN[C@@H](C)C(=O)N[C@H]1CN(C(=O)CC(C)C)CC[C@H]2CC[C@@H](C(=O)NC(c3ccccc3)c3ccccc3)N2C1=O
A498 renal
  GI50: > 42700 nM
  TGI: > 100 µM
DU-145 prostate
  GI50: > 100000 nM
  TGI: > 100 µM
HOP-62 NSCLC
  GI50: > 90900 nM
  TGI: > 100 µM
LOX IMVI melanoma
  GI50: > 100000 nM
  TGI: > 100 µM
MOLT-4 leukemia
  GI50: > 86700 nM
  TGI: > 100 µM
RXF 393 renal
  GI50: 7380 nM
  TGI: > 100 µM
SK-MEL-28 melanoma
  GI50: > 100000 nM
  TGI: > 100 µM
SK-OV-3 ovarian
  GI50: 156 nM
  TGI: 1.04 µM
SNB-75 CNS
  GI50: 15700 nM
  TGI: > 100 µM
UO-31 renal
  GI50: > 100000 nM
  TGI: > 100 µM

## O=Nc1ccc(O)c2ccccc12
A498 renal
  GI50: 15100 nM
  TGI: 28.6 µM
DU-145 prostate
  GI50: 1770 nM
  TGI: 3.22 µM
LOX IMVI melanoma
  GI50: 668 nM
  TGI: 2.28 µM
RXF 393 renal
  GI50: 2860 nM
  TGI: 8.24 µM
SK-MEL-28 melanoma
  GI50: 2590 nM
  TGI: 6.12 µM
SK-OV-3 ovarian
  GI50: 4930 nM
  TGI: 16.3 µM
SNB-75 CNS
  GI50: 1440 nM
  TGI: 3.02 µM
UO-31 renal
  GI50: 1360 nM
  TGI: 3.37 µM

## CN(C)CCCNC(=O)c1ccc2oc3cc4ccccc4c(=O)n3c2c1
DU-145 prostate
  GI50: 36700 nM
  TGI: > 50 µM
HOP-62 NSCLC
  GI50: > 50000 nM
  TGI: > 50 µM
LOX IMVI melanoma
  GI50: 10800 nM
  TGI: 27 µM
MOLT-4 leukemia
  GI50: > 50000 nM
  TGI: > 50 µM
RXF 393 renal
  GI50: 41600 nM
  TGI: > 50 µM
SK-MEL-28 melanoma
  GI50: 19900 nM
  TGI: > 50 µM
SK-OV-3 ovarian
  GI50: > 50000 nM
  TGI: > 50 µM
SNB-75 CNS
  GI50: 12600 nM
  TGI: 33.1 µM
UO-31 renal
  GI50: 18300 nM
  TGI: > 50 µM

## CCC(=O)C1(c2ccccc2)CCN(C)CC1
A498 renal
  TGI: > 100 µM
DU-145 prostate
  TGI: > 100 µM
HOP-62 NSCLC
  TGI: > 100 µM
MOLT-4 leukemia
  TGI: > 100 µM
RXF 393 renal
  TGI: > 100 µM
SK-MEL-28 melanoma
  TGI: > 100 µM
SK-OV-3 ovarian
  TGI: > 100 µM
SNB-75 CNS
  TGI: > 100 µM
UO-31 renal
  TGI: > 100 µM

## COc1c2ccoc2cc2oc(=O)ccc12
A498 renal
  TGI: > 100 µM
DU-145 prostate
  TGI: > 100 µM
HOP-62 NSCLC
  TGI: > 100 µM
LOX IMVI melanoma
  TGI: > 100 µM
MOLT-4 leukemia
  TGI: > 100 µM
RXF 393 renal
  TGI: > 100 µM
SK-MEL-28 melanoma
  TGI: > 100 µM
SNB-75 CNS
  TGI: > 100 µM

## O=c1[nH]cc(/C=N\Nc2ccccc2)c(=O)[nH]1
A498 renal
  TGI: > 100 µM
DU-145 prostate
  TGI: > 100 µM
LOX IMVI melanoma
  TGI: > 100 µM
RXF 393 renal
  TGI: > 100 µM
SK-MEL-28 melanoma
  TGI: > 100 µM
SK-OV-3 ovarian
  TGI: > 100 µM
SNB-75 CNS
  TGI: > 100 µM
UO-31 renal
  TGI: > 100 µM
